The experiment deals with TSPO (Rattus norvegicus, UniProt P16257). Nature of the experiment: Inhibition of [3H]1 binding to rat kidney mitochondrial membranes. To be noted: ratio of Ki, 20 vs Ib, 21 vs Ic.

Structures are written as SMILES.

For `CCCCCCN(CCCCCC)C(=O)C(=O)c1c(-c2ccccc2)n(C)c2ccccc12` [compound 21], the “gain in activity with respect to desmethyl counterpart” value is 4.6.
Turning to `CCCCN(CCCC)C(=O)C(=O)c1c(-c2ccccc2)n(C)c2ccccc12` [compound 20], the “gain in activity with respect to desmethyl counterpart” value is listed as 25.
